Experimental data published in US9422238B2, “ICMT inhibitors” (National University of Singapore, priority 2012, dated 2016).
Where two headings read alike, the source gives them in different places.

Legend:
[1] = molecular target: T1, Isoprenylcysteine carboxyl methyltransferase (Icmt) (Homo sapiens, UniProt O60725); assay: Icmt inhibition, scintillation proximity assay with BFC and [3H]SAM; assay type: biochemical; conditions: for IC50: Table 3, mean of two or more determinations (SD), read-out: IC50 Icmt
T1 construct: made in house; host or cells: Sf9 (Spodoptera frugiperda) insect cells; membrane preparation provided by Prof PJ Casey (Duke University / Duke-NUS)
T1 sequence (O60725 whole entry, species assumed): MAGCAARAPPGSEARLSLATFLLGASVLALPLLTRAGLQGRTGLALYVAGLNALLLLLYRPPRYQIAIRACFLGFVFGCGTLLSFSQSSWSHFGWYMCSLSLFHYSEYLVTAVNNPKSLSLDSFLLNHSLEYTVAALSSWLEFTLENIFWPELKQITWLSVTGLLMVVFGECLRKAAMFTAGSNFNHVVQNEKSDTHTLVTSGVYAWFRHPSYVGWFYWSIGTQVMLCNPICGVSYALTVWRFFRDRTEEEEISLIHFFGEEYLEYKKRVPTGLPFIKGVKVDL
Protocol: Isoprenylcysteine carboxyl methyltransferase (Icmt) was provided by Prof PJ Casey of Duke University, NC. S-Adenosylmethionine (SAM), magnesium chloride Hexahydrate (MgCl2), tartrazine, 4-(2-hydroxyethyl)-1-piperazineethanesulfonic acid (HEPES), dimethyl sulfoxide (DMSO) and dithiotreitol (DTT) were purchased from Sigma (Mo, USA). [^3H] S-Adenosylmethionine, [^3H] Biotin and Streptavidin PVT SPA Beads were purchased from PerkinElmer (Waltham, Mass.). Assays were performed in black small volume 384 well microtitre plates from PerkinElmer.
Stocks of Icmt membrane protein (30 μg/μL) stored at −80° C. were thawed at 37° C. and placed on ice. The Icmt membrane protein was diluted in assay buffer (70 mM HEPES, 100 mM NaCl, 5 mM Mg Cl2 and 3 mM DTT, pH 7.5) to a 0.03 μg/μL working concentration and added to the wells of a microtitre plate (5 μl/well). To each wells 20 μl of the reaction buffer was added. The reaction was initiated with the addition of 5 μL of substrate solution containing BFC (6 μM), SAM (3 μM) and 30 μCi/mL [^3H] SAM (all of these reagents were stored at −20° C., SAM reagents thawed on ice, BFC thawed at RT). The plate was incubated at 37° C. for 30 minutes. The reaction was stopped with the addition of 15 μL of stop solution containing SAM (150 μM) and Streptavidin SPA beads (20 mg/mL). Following overnight incubation at ambient temperature radioactivity was counted on a Microbeta Trilux™ (Perkin Elmer, Turku, Finland).
Sf9 (Spodoptera frugiperda ovarian) membranes containing recombinant Icmt were provided by Prof PJ Casey (Duke University, NC and Duke-NUS Graduate Medical School). S-Adenosylmethionine (SAM), magnesium chloride hexahydrate, tartrazine, 4-(2-hydroxyethyl)-1-piperazineethanesulfonic acid (HEPES) and dithiotreitol (DTT) were purchased from Sigma (Mo, USA). [^3H] S-Adenosylmethionine, [^3H] biotin and streptavidin PVT SPA Beads were purchased from PerkinElmer (Waltham, Mass.). Biotinylated farnesylcysteine was synthesized as described in an earlier report. Assays were performed in black 384-well microtitre plates from PerkinElmer.
A vial of Icmt membrane protein (30 μg/μL) stored at −80° C. was thawed at 37° C. and placed on ice. The protein was diluted in assay buffer (70 mM HEPES, 100 mM NaCl, 5 mM MgCl2, 3 mM DTT, pH 7.5) to 0.03 μg/μL and aliquots were added to each well (5 μL/well), followed by 20 μL of the assay buffer. The reaction was initiated by adding 5 μL of a solution containing biotinylated BFC (6 μM), SAM (3 μM) and 30 μCi/mL [^3H] SAM. These reagents were stored at −20° C. and thawed on ice (SAM, [^3H] SAM) or at room temperature (BFC). The plate was incubated at 37° C. for 30 minutes after which the reaction was quenched by adding 15 μL of a solution comprising SAM (150 μM) and streptavidin SPA beads (20 mg/mL). After overnight incubation at ambient temperature, radioactivity was counted (Microbeta Trilux™, Perkin Elmer, Turku, Finland). The degree of inhibition was assessed from the radioactivity obtained in presence of test compound compared to that obtained from the control sample […]. Two independent determinations were made for each test compound.

[2] = system: MDA-MB-231 human breast cells; assay: Antiproliferative activity / cell viability (MTS, 72 h)
Protocol: (§1) The relative number of the live cells was determined using the CellTiter® 96 AQueous One Solution Cell Proliferation Assay (Promega). Determinations were made in duplicates or triplicates.
Human breast cancer MDA-MB231, liver cancer HepG2 and lung fibroblast cells were purchased from ATCC (Rockville, Md.). MDA-MB231 cells and IMR-90 cells were grown in DMEM (Sigma Aldrich, Singapore) and EMEM (Sigma Aldrich, Singapore) respectively at 37° C., 5% CO2. DMEM was supplemented with 10% fetal bovine serum (Invitrogen, heat treated at 65 deg C., 30 min), 50 units/L penicillin-G and 50 μg/mL streptomycin. EMEM was supplemented with 10% fetal bovine serum (heat treated as above), 100 mg/L penicillin-G and 100 μg/mL streptomycin.
Cell viability was assessed using CellTitre 96® Aqueous One Solution (Promega, Madison, Wis.) containing the tetrazolium salt 3-(4,5-dimethylthiazol-2-yl)-5-(3-carboxymethoxyphenyl)-2-(4-sulfophenyl)-2H-tetrazolium (MTS). […] Final concentration of DMSO per well was maintained at 0.5% v/v. […] Cell viability was determined from the expression:
The plot was constrained to ≧0 and ≦100%. At least 3 independent determinations of IC50 were made using two different stock solutions of test compound.

[3] = system: PC3 Prostrate cancer cells; assay: as above; assay type: cell-based, human
Protocol: as §1

[4] = Homo sapiens, MDA-MB-231, read-out: IC50 (μM) MDA-MB231
[5] = Homo sapiens, Table 5, read-out: IC50 (μM) PC 3
[6] = Homo sapiens, MDA-MB-231, 72 h, read-out: IC50MDA-MB-231 (μM)
[7] = Homo sapiens, PC-3M, Table 3, 72 h, mean (SD), read-out: IC50 PC3
[8] = read-out: IC50MDA-MB-231, Table 3, 72 h, mean (SD)
[9] = Table 3, 72 h, mean (SD), read-out: IC50 PC3

Structure (SMILES)	IC50 [1] [µM]	IC50 [2, 4] [µM]	IC50 [3, 5] [µM]	IC50 [2, 6] [µM]	IC50 [3, 7] [µM]	also measured
CCCCCCCCn1cc(CC(N)=O)c2cc(-c3cnc(N)nc3)ccc21 [cpd 512]	–	> 50	> 50	–	–	–
CCCCCCCCn1c2c(c3cc(-c4cccc(C)c4)ccc31)CN(C(=O)OCC)CC2 [cpd 481]	–	25.9	30.1	–	–	–
CCCCCCCCn1c2c(c3cc(-c4cccc(C)c4)ccc31)CN(C(N)=O)CC2 [cpd 321]	–	–	10.5 ± 3.08	–	–	–
CCCCCCCCn1cc(CC(N)=O)c2cc(-c3ccnc(F)c3)ccc21 [cpd 513]	–	26.1 ± 0.41	25.6 ± 3.48	–	–	–
CCCCCCCCn1c2c(c3cc(-c4cnc(N)nc4)ccc31)CN(C(=O)OCC)CC2 [cpd 480]	–	17	21.3	–	–	–
CCCCCCCCn1c2c(c3cc(F)ccc31)CN(Cc1ccc(O)cc1)CC2 [Compound 205, 8-fluoro-2-(4′-hydroxybenzyl)-5-n-octyl-1,2,3,4-tetrahydropyrido[4,3-b]indole]	–	10.5 ± 0.08	10.5 ± 0.28	10.5	10.5	–
CCCCCCCCn1c2c(c3cc(F)ccc31)CN(C)CC2 [Compound 199, 8-fluoro-2-methyl-5-n-octyl-1,2,3,4-tetrahydropyrido[4,3-b]indole]	–	–	–	19.2	15.5	–
CCCCCCCCn1c2c(c3cc(-c4ccnc(F)c4)ccc31)CNCC2 [Compound 315, 8-(2′-fluoropyridin-4-yl)-5-n-octyl-1,2,3,4-tetrahydro-1H-pyrido[4,3-b]indole]	–	–	–	–	–	IC50 [2, 8]: 4.59 µM; IC50 [3, 9]: 7.69 µM
CCCCCCCCn1c2c(c3cc(-c4ccc(S(C)(=O)=O)cc4)ccc31)CN(C)CC2 [Compound 306, 2-methyl-8-(4′-(methylsulfonyl)phenyl)-5-n-octyl-1,2,3,4-tetrahydropyrido[4,3-b]indole]	–	–	–	4.6	5.38	–
CCCCCCCCn1c2c(c3cc(-c4cccc(C)c4)ccc31)CN(Cc1ccc(O)cc1)CC2 [Compound 240, 2-(4′-hydroxybenzyl)-8-m-tolyl-5-n-octyl-1,2,3,4-tetrahydropyrido[4,3-b]indoles]	–	–	–	–	–	IC50 [2, 8]: 14.8 µM; IC50 [3, 9]: 10.2 µM
CCCCCCCCn1c2c(c3cc(-c4ccc(S(C)(=O)=O)cc4)ccc31)CN(C(N)=O)CC2 [cpd 324]	–	–	8.88 ± 0.62	–	–	–
CC(C)=CCn1c2c(c3cc(-c4cccc(C)c4)ccc31)CN(Cc1ccc(O)cc1)CC2 [Compound 300, 2-(4′-hydroxybenzyl)-5-isoprenyl-8-m-tolyl-1,2,3,4-tetrahydropyrido[4,3-b]indoles]	–	9.38 ± 0.92	13.3 ± 5.7	9.38	13.3	–
CCCCCCCCn1c2c(c3cc(-c4cnc(N)nc4)ccc31)CN(C(N)=O)CC2 [cpd 319]	–	–	9.43 ± 3.85	–	–	–
CCCCCCCCn1c2c(c3cc(-c4cnc(N)nc4)ccc31)CN(C(C)C)CC2 [cpd 474]	–	9.17 ± 0.54	9.32 ± 0.65	–	–	–
CCCCCCCCn1c2c(c3cc(-c4cccc(C)c4)ccc31)CN(C)CC2 [Compound 235, 2-methyl-8-m-tolyl-5-n-octyl-1,2,3,4-tetrahydropyrido[4,3-b]indoles]	10.3	–	–	9.18	7.58	times less potent as an Icmt inhibitor than 8-1 ([1]; ratio of IC50 Icmt): ~5
CCCCCCCCn1c2c(c3cc(-c4cccc(C)c4)ccc31)CN(C(C)C)CC2 [Compound 260, 2-isopropyl-8-m-tolyl-5-n-octyl-1,2,3,4-tetrahydropyrido[4,3-b]indoles]	8.3	7.38 ± 0.48	9.69 ± 1.84	7.38	9.69	–
CCCCCCCCn1c2c(c3cc(-c4cnc(N)nc4)ccc31)CNCC2 [Compound 309, 8-(2′-amino-pyrimidin-5-yl)-5-n-octyl-1,2,3,4-tetrahydropyrido[4,3-b]indole]	–	–	–	2.72	4.44	–
CCCCCCCCn1c2c(c3cc(-c4ccnc(F)c4)ccc31)CN(C(N)=O)CC2 [cpd 323]	–	–	10.2 ± 3.63	–	–	–
CCCCCCCCn1cc(CN(CC)CC)c2cc(-c3cccc(OC(F)(F)F)c3)ccc21 [Compound 8-6]	–	–	–	–	–	IC50 [2, 8]: 7.17 µM; IC50 [3, 9]: 11.2 µM
CCCCCCCCn1c2c(c3cc(-c4cnc(N)nc4)ccc31)CN(CCO)CC2 [cpd 510]	–	3.42 ± 0.72	3.97 ± 0.42	–	–	–
CCCCCCCCn1c2c(c3cc(-c4ccc(S(C)(=O)=O)cc4)ccc31)CNCC2 [Compound 314, 8-(4′-(methylsulfonyl)phenyl)-5-n-octyl-1,2,3,4-tetrahydropyrido[4,3-b]indole]	–	–	–	2.1	2.92	–
CCCCCCCCn1c2c(c3cc(-c4cnc(N)nc4)ccc31)CN(S(C)(=O)=O)CC2 [cpd 488]	–	27.4	–	–	–	–
CCCCCCCCn1c2c(c3cc(-c4cnc(N)nc4)ccc31)CN(CC)CC2 [cpd 490]	–	5.85	–	–	–	–
CCCCCCCCn1c2c(c3cc(-c4cccc(C)c4)ccc31)CN(Cc1ccccc1)CC2 [cpd 214]	–	8.6 ± 1.68	10.9 ± 2.31	–	–	–
CCCCCCCCn1cc(CN(CC)CC)c2cc(-c3cccc(O)c3)ccc21 [Compound 8-21, 3-(3-Diethylaminomethyl-1-octyl-1H-indol-5-yl)-phenol]	5.43	–	–	14.8	17.4	–
CCCCCCCCn1cc(C(=O)C(N)=O)c2cc(-c3cccc(C)c3)ccc21 [cpd 273]	–	> 50	16.7 ± 1.68	–	–	–

Now from value to compound, other results behind:

IC50 [1] [µM]	IC50 [2, 4] [µM]	IC50 [3, 5] [µM]	IC50 [2, 6] [µM]	IC50 [3, 7] [µM]	Structure (SMILES)	also measured
2.61	–	–	–	–	CCCCCCCCn1cc(CN(CC)CC)c2cc(-c3cccc(C(F)(F)F)c3)ccc21 [Compound 8-5]	–
2.45	–	–	7.72	6.19	CCCCCCCCn1cc(CN(CC)CC)c2cc(-c3ccc(C#N)cc3)ccc21 [Compound 8-20, 4-(3-Diethylaminomethyl-1-octyl-1H-indol-5-yl)-benzonitrile]	–
2.26	–	–	3.95	5.92	CCCCCCCCn1cc(CN(CC)CC)c2cc(-c3cnc(C#N)nc3)ccc21 [Compound 8-19, 5-(3-Diethylaminomethyl-1-octyl-1H-indol-5-yl)-pyrimidine-2-carbonitrile]	–
1.28	–	–	6.69	9.66	CCCCCCCCn1cc(CN(CC)CC)c2cc(-c3ccccc3C(F)(F)F)ccc21 [Compound 8-4]	–
2.56	–	–	–	–	CCCCCCCCn1cc(CN(CC)CC)c2cc(-c3ccccc3F)ccc21 [Compound 8-2]	–
0.96	–	–	–	–	CCCCCCCCn1cc(CN(CC)CC)c2cc(-c3cnccc3F)ccc21 [Compound 8-8, Diethyl-[5(4-Fluoro-pyrdin-3yl)-1-octyl-1H-indol-3ylmethyl]-amine]	IC50 [2, 8]: 5.14 µM; IC50 [3, 9]: 5.88 µM
1.61	–	–	–	–	CCCCCCCCn1cc(CN(CC)CC)c2cc(-c3cccc(F)c3)ccc21 [Compound 8-3]	–
